pIC50: −log10 of the molar value. Calls of active or inactive are those of the source. The calls are words filed in the database; no cut-off is given here.

Series [1] is described as follows: Inhibition of NFAT activation in anti-CD3/anti-CD28-stimulated human Jurkat T cells. In kind it is cell-based.
Series [2] addresses T1, Tyrosine-protein kinase BTK (Homo sapiens, UniProt Q06187). As to the kind of experiment: Inhibition of BTK (unknown origin) using peptide substrate in presence of ATP by caliper electrophoresis method.
The target of series [3] is D(2) dopamine receptor (Homo sapiens) (UniProt P14416). As to the kind of experiment: Displacement of [3H]methyl-spiperone from recombinant human dopamine receptor D2S at 10 uM incubated for 60 mins by radiometric scintillation assay relative to control.
The subject of the next series is Canis lupus familiaris. Kind of series: Effect on canine pemphigus foliaceous dog model assessed as reduction in lesion at 8 to 21 mg/kg measured for 2 weeks. The format is functional, organism-based. To be noted: dose lower 8.0 mg/kg, dose upper […].
Series [4] in a line: Drug concentration in plasma of collagen-induced arthritis Lewis rat model 3 mg/kg/day, po measured after 6 hrs post-collection of plasma. The format is ADME, organism-based.
Series [5] can be described thus: Toxicity in male Beagle dog assessed as drug tolerance up to 400 mg/kg/day qd for 12 weeks. In kind it is organism-based, Canis lupus familiaris. To be noted: in vivo, 2016 h.
Series [6] has as its target T2, Tyrosine-protein kinase ITK/TSK (Homo sapiens, UniProt Q08881).
T2 sequence (Q08881 whole entry): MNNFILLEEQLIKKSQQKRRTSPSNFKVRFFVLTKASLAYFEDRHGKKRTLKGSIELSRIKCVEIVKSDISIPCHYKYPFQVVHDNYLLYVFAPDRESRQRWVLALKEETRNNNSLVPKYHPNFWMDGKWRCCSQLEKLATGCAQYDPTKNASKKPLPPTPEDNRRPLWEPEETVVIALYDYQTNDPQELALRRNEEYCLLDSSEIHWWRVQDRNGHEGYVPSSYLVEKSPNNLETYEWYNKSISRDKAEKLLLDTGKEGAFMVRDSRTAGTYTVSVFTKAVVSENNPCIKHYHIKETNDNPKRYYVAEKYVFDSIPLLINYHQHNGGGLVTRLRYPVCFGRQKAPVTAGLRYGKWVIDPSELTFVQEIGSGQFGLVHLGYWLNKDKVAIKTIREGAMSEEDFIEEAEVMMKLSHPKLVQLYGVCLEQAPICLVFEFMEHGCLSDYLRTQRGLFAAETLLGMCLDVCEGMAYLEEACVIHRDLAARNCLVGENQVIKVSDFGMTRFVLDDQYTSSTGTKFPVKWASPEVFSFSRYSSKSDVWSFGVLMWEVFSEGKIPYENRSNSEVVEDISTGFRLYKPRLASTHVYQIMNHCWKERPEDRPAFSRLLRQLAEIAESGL
As to the kind of experiment: Inhibition of ITK (unknown origin) using peptide substrate in presence of ATP by caliper electrophoresis method.

The nature of series [7]: Mutagenicity in Salmonella typhimurium by Ames test. To be noted: salmonella enterica subsp. enterica serovar typhimurium. In kind it is toxicity.
For series [8], the target named is T1, Tyrosine-protein kinase BTK. As to the kind of experiment: Inhibition of biotinylated-labeled BTK-selective probe binding to BTK in human Ramos assessed as target occupancy pretreated for 1 hr followed by probe addition measured for 18 hrs by AlphaScreen assay. In kind it is cell-based.
The target in series [9] is T3, Tyrosine-protein kinase Tec (Homo sapiens) (UniProt P42680).
T3 sequence (whole entry): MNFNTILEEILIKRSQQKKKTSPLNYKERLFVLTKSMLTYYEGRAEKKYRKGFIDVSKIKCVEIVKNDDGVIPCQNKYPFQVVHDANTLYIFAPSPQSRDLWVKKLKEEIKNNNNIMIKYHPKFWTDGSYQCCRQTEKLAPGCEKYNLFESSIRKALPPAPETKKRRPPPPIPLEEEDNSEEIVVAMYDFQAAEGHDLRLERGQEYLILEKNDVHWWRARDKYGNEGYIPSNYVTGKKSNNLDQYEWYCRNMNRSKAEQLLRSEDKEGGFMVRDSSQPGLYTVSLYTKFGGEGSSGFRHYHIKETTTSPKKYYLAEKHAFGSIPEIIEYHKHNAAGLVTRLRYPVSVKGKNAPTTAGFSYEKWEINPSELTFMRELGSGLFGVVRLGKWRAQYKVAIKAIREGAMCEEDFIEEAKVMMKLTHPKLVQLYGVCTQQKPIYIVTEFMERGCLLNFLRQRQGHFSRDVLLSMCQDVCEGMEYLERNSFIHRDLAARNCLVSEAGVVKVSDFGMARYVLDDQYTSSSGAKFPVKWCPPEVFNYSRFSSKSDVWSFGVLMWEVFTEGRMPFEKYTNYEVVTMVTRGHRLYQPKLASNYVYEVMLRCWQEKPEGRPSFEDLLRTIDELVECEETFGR
Kind of series: Displacement of competitive tracer from TEC (unknown origin) assessed as target occupancy at […] preincubated for 15 mins measured for 1 hr relative to control. To be noted: dose 1.5 µM.

Series [10] has as its target T4, Tyrosine-protein kinase JAK3 (Homo sapiens, UniProt P52333).
T4 sequence (P52333 whole entry): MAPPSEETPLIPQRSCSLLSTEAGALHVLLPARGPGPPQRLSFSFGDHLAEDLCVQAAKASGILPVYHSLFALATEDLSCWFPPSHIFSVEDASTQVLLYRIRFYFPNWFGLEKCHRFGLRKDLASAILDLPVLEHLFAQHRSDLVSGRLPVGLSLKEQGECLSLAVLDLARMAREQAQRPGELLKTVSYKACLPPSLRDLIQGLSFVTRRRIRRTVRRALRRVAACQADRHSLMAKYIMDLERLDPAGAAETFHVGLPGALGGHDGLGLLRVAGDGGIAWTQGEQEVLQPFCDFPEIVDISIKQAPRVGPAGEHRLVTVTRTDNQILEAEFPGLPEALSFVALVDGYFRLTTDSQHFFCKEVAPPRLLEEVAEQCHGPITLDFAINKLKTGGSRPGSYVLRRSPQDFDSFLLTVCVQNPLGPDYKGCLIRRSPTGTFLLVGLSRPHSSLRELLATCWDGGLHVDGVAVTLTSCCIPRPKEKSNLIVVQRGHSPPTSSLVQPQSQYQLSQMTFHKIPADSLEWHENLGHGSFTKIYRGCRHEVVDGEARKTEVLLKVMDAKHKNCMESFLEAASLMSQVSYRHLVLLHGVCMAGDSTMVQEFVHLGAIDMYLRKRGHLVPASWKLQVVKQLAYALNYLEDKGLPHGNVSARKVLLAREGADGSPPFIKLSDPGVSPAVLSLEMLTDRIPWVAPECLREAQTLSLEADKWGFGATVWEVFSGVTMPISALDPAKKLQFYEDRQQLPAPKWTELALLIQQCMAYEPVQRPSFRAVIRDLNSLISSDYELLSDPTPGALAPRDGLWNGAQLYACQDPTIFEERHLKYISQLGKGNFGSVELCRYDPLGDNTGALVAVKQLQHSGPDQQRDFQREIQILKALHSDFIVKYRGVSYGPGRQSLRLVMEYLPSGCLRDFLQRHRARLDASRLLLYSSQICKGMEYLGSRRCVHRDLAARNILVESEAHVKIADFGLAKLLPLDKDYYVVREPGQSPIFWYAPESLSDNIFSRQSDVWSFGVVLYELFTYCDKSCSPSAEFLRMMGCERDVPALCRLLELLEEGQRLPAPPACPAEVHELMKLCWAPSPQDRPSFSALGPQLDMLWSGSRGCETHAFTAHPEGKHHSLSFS
As to the kind of experiment: Inhibition of JAK3 (unknown origin) using peptide substrate in presence of ATP by caliper electrophoresis method.

Series [11] in a line: Clearance in rat at 2 mg/kg, iv. In kind it is ADME, organism-based. To be noted: in vivo.

T1 sequence (Q06187 whole entry): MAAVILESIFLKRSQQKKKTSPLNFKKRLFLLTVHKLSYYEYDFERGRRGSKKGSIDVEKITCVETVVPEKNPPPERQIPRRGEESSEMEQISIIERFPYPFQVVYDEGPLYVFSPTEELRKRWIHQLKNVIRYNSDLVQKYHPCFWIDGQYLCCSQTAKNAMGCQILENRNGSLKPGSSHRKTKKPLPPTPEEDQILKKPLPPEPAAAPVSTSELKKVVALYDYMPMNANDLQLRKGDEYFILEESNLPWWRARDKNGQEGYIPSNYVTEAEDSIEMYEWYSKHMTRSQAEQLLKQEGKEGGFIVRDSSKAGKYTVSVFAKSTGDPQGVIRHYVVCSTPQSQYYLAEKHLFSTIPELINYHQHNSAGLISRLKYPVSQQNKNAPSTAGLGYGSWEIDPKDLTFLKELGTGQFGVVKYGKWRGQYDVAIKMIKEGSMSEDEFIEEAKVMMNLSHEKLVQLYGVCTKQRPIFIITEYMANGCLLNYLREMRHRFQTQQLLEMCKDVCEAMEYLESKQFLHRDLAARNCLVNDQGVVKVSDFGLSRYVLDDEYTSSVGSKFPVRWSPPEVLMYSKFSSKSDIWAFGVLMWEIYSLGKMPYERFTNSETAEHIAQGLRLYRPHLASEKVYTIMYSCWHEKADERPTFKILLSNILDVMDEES
Chain of D(2) dopamine receptor (Homo sapiens) (P14416 whole entry): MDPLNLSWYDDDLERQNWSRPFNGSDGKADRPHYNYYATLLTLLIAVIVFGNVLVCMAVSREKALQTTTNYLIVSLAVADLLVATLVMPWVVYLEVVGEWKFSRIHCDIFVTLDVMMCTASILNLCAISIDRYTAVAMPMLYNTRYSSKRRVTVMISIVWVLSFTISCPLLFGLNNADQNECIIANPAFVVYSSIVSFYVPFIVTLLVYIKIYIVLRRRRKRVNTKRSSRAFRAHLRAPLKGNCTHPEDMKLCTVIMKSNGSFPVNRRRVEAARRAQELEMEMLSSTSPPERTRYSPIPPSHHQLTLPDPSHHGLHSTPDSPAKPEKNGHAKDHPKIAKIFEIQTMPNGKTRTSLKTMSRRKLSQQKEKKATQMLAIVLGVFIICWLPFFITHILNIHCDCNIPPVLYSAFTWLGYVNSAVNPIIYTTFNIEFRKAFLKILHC

On to `CC(C)(C)/C=C(\C#N)C(=O)N1CCC[C@@H](n2nc(-c3ccc(Oc4ccccc4)cc3F)c3c(N)ncnc32)C1` [ATUZABRUTINIB], for which the pIC50 in series [1] was 5.68; in [2], 8.74; in series [6] it was 6.52; in series [8], 7.52; in [10], less than 5.30. For the same compound, the inhibition in series [3] was more than 50%. Besides, in the series on Canis lupus familiaris, the outcome was Active. The compound also showed a concentration at 6 h in series [4] of 5.2 ng/mL. Further, the Activity result in series [5] was “Non-Toxic”; in [7], “Non-Toxic”; in series [9] it was 87%.
Take `CC(C)(/C=C(/C#N)C(=O)N1CCC[C@@H]1Cn1nc(-c2ccc(Oc3ccccc3)cc2F)c2c(N)ncnc21)N1CCOCC1`: the pIC50 in series [2] is 7.14; in series [6], less than 5.30; in [8], 7.44; in [10], less than 5.30. The compound also gave a clearance in series [11] of 120 mL/min/kg.
For the compound `CN1CCN(C(C)(C)/C=C(\C#N)C(=O)N2CCC[C@@H](n3nc(-c4ccc(Oc5ccccc5)cc4F)c4c(N)ncnc43)C2)CC1`, the pIC50 was 6.96 in [6] and less than 5.30 in series [10]. The clearance in series [11] worked out at 119 mL/min/kg.

The record behind these values is ChEMBL document CHEMBL5104103 (J Med Chem, 2022).
